Reference: the OPERA property sets (Mansouri et al. 2018)
Values after ≈ are worked out from the molar mass of the structure shown.

## O=c1ccc(I)c[nH]1
20 °C
  solubility: 18.1 mM (≈ 4000 µg/mL)

## C=CCC1(CC)C(=O)NC(=O)NC1=O
20 °C
  solubility: 20.5 mM (≈ 4020 µg/mL)

## O=[N+]([O-])c1cc(CCO)ccc1O
25 °C
  solubility: 69.9 mM (≈ 12800 µg/mL)

## OCc1ccc(I)cc1
20 °C
  solubility: 1.79 mM (≈ 420 µg/mL)

## COc1c(C(=O)O)cccc1C(=O)O
20 °C
  solubility: 5.1 mM (≈ 1000 µg/mL)

## COC(=O)c1ccc([N+](=O)[O-])cc1C(=O)O
20 °C
  solubility: 8.79 mM (≈ 1980 µg/mL)

## Oc1cccc2ccnnc12
20 °C
  solubility: 3.9 mM (≈ 570 µg/mL)

## O=C(O)C1CCNCC1C(=O)O (stereo not given)
  solubility: 289 mM (≈ 50000 µg/mL)

## C=CCOc1ccccc1C(N)=O
20 °C
  solubility: 5.93 mM (≈ 1050 µg/mL)

## NC(CC(=O)O)c1cccc2ccccc12 (stereo not given)
  solubility: 25.7 mM (≈ 5530 µg/mL)

## Cc1cnc(NS(=O)(=O)c2ccc(N)cc2)nc1C
29 °C
  solubility: 0.719 mM (≈ 200 µg/mL)

## Cc1cc(C)c(OCC(=O)O)c(Br)c1
20 °C
  solubility: 0.753 mM (≈ 195 µg/mL)

## O=I(=O)c1ccccc1
25 °C
  solubility: 14.4 mM (≈ 3400 µg/mL)

## O=C1CCCCCCCCN1
22 °C
  solubility: 84.4 mM (≈ 13100 µg/mL)

## CCCCC(C)C(C)O (stereo not given)
25 °C
  solubility: 8.75 mM (≈ 1140 µg/mL)

## Cc1nc(C)c(C(=O)O)cc1C(=O)O
20 °C
  solubility: 1.55 mM (≈ 303 µg/mL)

## O=C(O)c1cc(N=Nc2ccccc2)ccc1O
25 °C
  solubility: 0.879 mM (≈ 213 µg/mL)

## O=[N+]([O-])c1cccc(CO)c1
20 °C
  solubility: 3.85 mM (≈ 590 µg/mL)

## O=Cc1cccc(C(=O)O)c1O
24 °C
  solubility: 3.61 mM (≈ 600 µg/mL)

## C=CCOC(CO)CO
  solubility: 3030 mM (≈ 400000 µg/mL)

## CCCc1cc(F)ccc1O
  solubility: 13 mM (≈ 2000 µg/mL)

## O=C(NCCO)C(=O)NCCO
20 °C
  solubility: 772 mM (≈ 136000 µg/mL)

## Brc1ccc2c(c1)Sc1ccccc1N2
20 °C
  solubility: 0.000773 mM (≈ 0.215 µg/mL)

## CCOc1ccc(C(=O)O)c2ccccc12
25 °C
  solubility: 0.0772 mM (≈ 16.7 µg/mL)

## COc1ccc(NC(N)=O)cc1
21 °C
  solubility: 25.6 mM (≈ 4250 µg/mL)

## COC1CCCC(C)O1 (stereo not given)
  solubility: 256 mM (≈ 33300 µg/mL)

## CC(C)(NC(=O)c1ccccc1)C(N)=O
  solubility: 24.2 mM (≈ 5000 µg/mL)

## CCC(=O)Oc1ccc([N+](=O)[O-])cc1
25 °C
  solubility: 0.128 mM (≈ 25 µg/mL)

## O=C(OCCO)c1ccccc1O
20 °C
  solubility: 69.7 mM (≈ 12700 µg/mL)

## Cc1ccc(C)c(C)n1
26 °C
  solubility: 257 mM (≈ 31200 µg/mL)

## CCCCCCCOC(=O)c1ccc(O)cc1
30 °C
  solubility: 0.0846 mM (≈ 20 µg/mL)

## NCCCNc1ccccc1
  solubility: 22.2 mM (≈ 3330 µg/mL)

## O=C(O)c1oc(Cl)c(Cl)c1Cl
20 °C
  solubility: 6.04 mM (≈ 1300 µg/mL)

## CCCCOC(=O)NS(N)(=O)=O
25 °C
  solubility: 91.7 mM (≈ 18000 µg/mL)

## CSc1ncc2nccnc2n1
20 °C
  solubility: 17.5 mM (≈ 3130 µg/mL)

## C=CCc1ccc(O)c(O)c1
26 °C
  solubility: 166 mM (≈ 25000 µg/mL)

## CCOc1ccc(NC(=O)CO)cc1
  solubility: 7.84 mM (≈ 1530 µg/mL)

## CCOC(=O)c1c(C)oc(C)c(C(=O)OCC)c1=O
20 °C
  solubility: 29.8 mM (≈ 8000 µg/mL)

## NC(=S)Nc1cccc([N+](=O)[O-])c1
20 °C
  solubility: 35.5 mM (≈ 7000 µg/mL)

## CCN(CC)CN(CC)CC
  solubility: 632 mM (≈ 100000 µg/mL)

## CCC(C)S (stereo not given)
20 °C
  solubility: 14.6 mM (≈ 1320 µg/mL)

## O=C(O)c1cc(Br)co1
20 °C
  solubility: 65.4 mM (≈ 12500 µg/mL)

## CCCCC(=O)Oc1ccc([N+](=O)[O-])cc1
25 °C
  solubility: 0.0403 mM (≈ 9 µg/mL)

## NC(N)=N/C(N)=N/c1cccc2ccccc12
20 °C
  solubility: 4.84 mM (≈ 1100 µg/mL)

## O=C(S)CCCCCCCCC(=O)S
26 °C
  solubility: 0.853 mM (≈ 200 µg/mL)

## NC(C(=O)O)C(O)C(=O)O (stereo not given)
25 °C
  solubility: 149 mM (≈ 22200 µg/mL)

## OCc1ccccc1Br
20 °C
  solubility: 6.95 mM (≈ 1300 µg/mL)

## CCC(Cl)(CC)C(N)=O
  solubility: 93.6 mM (≈ 14000 µg/mL)

## CN(C)C(=O)c1ccccc1C(=O)N(C)C
30 °C
  solubility: 3220 mM (≈ 710000 µg/mL)

## Cc1ccc(NO)cc1
  solubility: 162 mM (≈ 20000 µg/mL)

## CC(C)Cc1nnc(NS(=O)(=O)c2ccc(N)cc2)s1
20 °C
  solubility: 0.15 mM (≈ 47 µg/mL)

## O=CCCCCCCCC(=O)O
20 °C
  solubility: 110 mM (≈ 19000 µg/mL)

## NC(=O)NN=C1CCCCC1
20 °C
  solubility: 38.7 mM (≈ 6000 µg/mL)

## CC(C)COC(=O)c1c(C(=O)O)cccc1[N+](=O)[O-]
20 °C
  solubility: 0.898 mM (≈ 240 µg/mL)

## COC(=O)c1ccc(O)c(Br)c1
30 °C
  solubility: 0.684 mM (≈ 158 µg/mL)

## O=C(O)C(Br)=C(Br)Br
20 °C
  solubility: 43.7 mM (≈ 13500 µg/mL)

## O=C(O)c1cc(Br)ccc1Cl
21 °C
  solubility: 11.2 mM (≈ 2630 µg/mL)

## COc1ccc2c(c1)Sc1ccc(Cl)cc1N2
20 °C
  solubility: 0.0105 mM (≈ 2.77 µg/mL)

## CO[C@H](C)[C@H](N)C(=O)O (racemic)
25 °C
  solubility: 3100 mM (≈ 413000 µg/mL)

## S=c1[nH]sc(=S)[nH]1
20 °C
  solubility: 17.3 mM (≈ 2600 µg/mL)

## OCc1c(Cl)c(Cl)c(Cl)c(Cl)c1Cl
20 °C
  solubility: 0.00713 mM (≈ 2 µg/mL)

## CCC(CC)(CC)NC(N)=O
20 °C
  solubility: 15.2 mM (≈ 2400 µg/mL)

## CCCCOP(=O)(CCCC)OCCCC
25 °C
  solubility: 2 mM (≈ 500 µg/mL)

## CCCC(C)CC(C)O (stereo not given)
25 °C
  solubility: 13.2 mM (≈ 1730 µg/mL)

## Cc1ccc(S(C)(=O)=O)cc1
25 °C
  solubility: 10.3 mM (≈ 1750 µg/mL)

## Cn1c(=O)c2c(n(C)c1=O)n(C)c(=O)n2C
20 °C
  solubility: 112 mM (≈ 25000 µg/mL)

## N#Cc1ccc(C(=O)O)cc1
20 °C
  solubility: 8.16 mM (≈ 1200 µg/mL)

## O=NC1=C(NO)CCC1
24 °C
  solubility: 10.1 mM (≈ 1300 µg/mL)

## CCC(CC)(C(N)=O)C(N)=O
  solubility: 63.2 mM (≈ 10000 µg/mL)

## COC(=O)OC(C)C(=O)OC (stereo not given)
25 °C
  solubility: 251 mM (≈ 40700 µg/mL)

## Cc1ccc(OCC(=O)O)cc1
20 °C
  solubility: 7.22 mM (≈ 1200 µg/mL)

## S=c1nc[nH]c2nccnc12
20 °C
  solubility: 2.25 mM (≈ 370 µg/mL)

## CCCCCCCCCCNC(=O)c1cccnc1
25 °C
  solubility: 0.838 mM (≈ 220 µg/mL)

## CCCCOP(=O)(O)OCCCC
25 °C
  solubility: 81.8 mM (≈ 17200 µg/mL)

## CCCCP(=O)(CCCC)OCC
25 °C
  solubility: 63 mM (≈ 13000 µg/mL)

## COc1ccc2[nH]c(=O)cc(C(=O)O)c2c1
21 °C
  solubility: 0.776 mM (≈ 170 µg/mL)

## CCCOc1ccc(NC(C)=O)cc1
30 °C
  solubility: 0.88 mM (≈ 170 µg/mL)

## C=CC1=C(C)C(=Cc2[nH]c(Cc3[nH]c(C=C4NC(=O)C(C)=C4C=C)c(C)c3CCC(=O)O)c(CCC(=O)O)c2C)NC1=O
25 °C
  solubility: 0.0154 mM (≈ 9 µg/mL)

## C=CS(=O)(=O)Nc1ccccc1
20 °C
  solubility: 31.7 mM (≈ 5800 µg/mL)

## Cc1ccc(P(=O)(O)O)c(C)c1
20 °C
  solubility: 80.6 mM (≈ 15000 µg/mL)

## OCc1cc(Cl)c(Cl)c(Cl)c1
20 °C
  solubility: 0.804 mM (≈ 170 µg/mL)

## O=C(O)C(Cl)=C(Br)Br
20 °C
  solubility: 205 mM (≈ 54300 µg/mL)

## NNC(=O)c1nccs1
  solubility: 210 mM (≈ 30000 µg/mL)

## NC(=S)SCC(=O)O
  solubility: 179 mM (≈ 27000 µg/mL)

## CCCCOCCOCCOC(N)=O
  solubility: 487 mM (≈ 100000 µg/mL)
